From ChEMBL document CHEMBL1154142, “Tyrosine derivatives isolated from Streptomyces sp. IFM 10937 in a screening program for TRAIL-resistance-overcoming activity” (2008)
Calls of active or inactive are those of the source. The rule behind the calls is not given here.

What was measured:
Assay type in all cases: functional
[1] = tested on: AGS; assay: Anticancer activity against TRAIL-resistant human AGS cells assessed as cell viability at 17.5 uM after 24 hrs by fluorometric microculture cytotoxicity assay in presence of 100 ng/ml TRAIL
[2] = tested on: AGS; assay: Anticancer activity against TRAIL-resistant human AGS cells assessed as cell viability at 150 uM after 24 hrs by fluorometric microculture cytotoxicity assay in presence of 100 ng/ml TRAIL
[3] = tested on: AGS; assay: Anticancer activity against TRAIL-resistant human AGS cells assessed as cell viability at 75 uM after 24 hrs by fluorometric microculture cytotoxicity assay in presence of 100 ng/ml TRAIL
[4] = tested on: AGS; assay: Anticancer activity against TRAIL-resistant human AGS cells assessed as cell viability at 37.5 uM after 24 hrs by fluorometric microculture cytotoxicity assay in presence of 100 ng/ml TRAIL

O=c1cc(-c2ccc(O)c(O)c2)oc2cc(O)cc(O)c12 [LUTEOLIN] showed an Activity [1] of 70%.
In the case of CC(C)=CCc1cc(C[C@H](N)C(=O)O)ccc1O, the Activity [2] is reported as “inactive” and the Activity [3] is reported as “inactive”.
With CC(=O)N[C@@H](Cc1ccc(O)c(CC=C(C)C)c1)C(=O)O the Activity [2] was 67% and the Activity [3] was 77%.
In the case of CO[C@@H]1[C@@H](OC(N)=O)[C@@H](O)[C@H](Oc2ccc3c(O)c(NC(=O)c4ccc(O)c(CC=C(C)C)c4)c(=O)oc3c2C)OC1(C)C [NOVOBIOCIN], the Activity [3] is reported as 63% and the Activity [4] is reported as 72%.
